Where two headings read alike, the source gives them in different places.
Experiments:
HUVEC = assay: In vitro flow chamber: T cell-rolling and adhesion on HUVEC, short-term conditions; assay type: cell-based, human
Experimental: Human brain microvascular endothelial cells (HBMEC) (#1000, Sciencell Research Laboratories) or human umbilical vein endothelial cells (HUVEC) (#C-12200, Promocell) were used as endothelial cell-model. Cryopreserved HBMEC at passage 1 (>5×10^5 cells/ml) were first cultivated in fibronectin-coated Nunclon-treated 75 cm^2 cell culture flasks (#156499, Nunc) at 37° C. and 5% CO2 in a Heraeus Cytoperm 2 (Thermo Scientific) according to the manufacturer's instructions. Sub-cultivation of HBMEC was done with the Detach Kit (#C-41200, Promocell) consisting of HEPES-buffered balanced salt solution (#C-40000, Promocell), trypsin-EDTA solution (0.04%/0.03%) (#C-41000, Promocell) and trypsin neutralization solution (TNS, #C-41100, Promocell). Briefly, the medium was aspirated from the HBMEC-layer and cells were washed with 2 ml of HEPES-buffered balanced salt solution. Addition of 2 ml of trypsin-EDTA solution for 1-5 min at room temperature led to detachment of HBMEC from the flask bottom. Inactivation of trypsin-EDTA solution was performed by addition of 2 ml of trypsin neutralization solution to the cell suspension. Cells were centrifuged at 300 g for 4 min in a Heraeus Megafuge 40 (Thermo Scientific) and seeded at a cell density of 5×10^5 cells per gelatin-coated 75 cm^2 cell culture flask (#L7230, Biochrom). […]

HBMEC = assay: In vitro flow chamber: T cell-rolling on HBMEC, long-term conditions; assay type: cell-based, human
Experimental: Human brain microvascular endothelial cells (HBMEC) (#1000, Sciencell Research Laboratories) or human umbilical vein endothelial cells (HUVEC) (#C-12200, Promocell) were used as endothelial cell-model. Cryopreserved HBMEC at passage 1 (>5×10^5 cells/ml) were first cultivated in fibronectin-coated Nunclon-treated 75 cm^2 cell culture flasks (#156499, Nunc) at 37° C. and 5% CO2 in a Heraeus Cytoperm 2 (Thermo Scientific) according to the manufacturer's instructions. Sub-cultivation of HBMEC was done with the Detach Kit (#C-41200, Promocell) consisting of HEPES-buffered balanced salt solution (#C-40000, Promocell), trypsin-EDTA solution (0.04%/0.03%) (#C-41000, Promocell) and trypsin neutralization solution (TNS, #C-41100, Promocell). Briefly, the medium was aspirated from the HBMEC-layer and cells were washed with 2 ml of HEPES-buffered balanced salt solution. Addition of 2 ml of trypsin-EDTA solution for 1-5 min at room temperature led to detachment of HBMEC from the flask bottom. Inactivation of trypsin-EDTA solution was performed by addition of 2 ml of trypsin neutralization solution to the cell suspension. Cells were centrifuged at 300 g for 4 min in a Heraeus Megafuge 40 (Thermo Scientific) and seeded at a cell density of 5×10^5 cells per gelatin-coated 75 cm^2 cell culture flask (#L7230, Biochrom). HBMEC for rolling and adhesion experiments were cultivated in RPMI 1640 medium (#FG1215, Biochrom) supplemented with Nu-Serum IV (10%) (#355505, BD Biosciences), dialyzed FBS (10%) (#SZ0115, Biochrom), MEM-vitamins (1%) (#K0373, Biochrom), L-glutamine (1%) (#K0283, Biochrom), sodium-pyruvate (1%) (#L0473, Biochrom), heparin (10 U/ml) (#L6510, Biochrom), and […] cell growth factor ECGS (30 μg/ml) (#02-102, Millipore). Cultivation of HUVEC was done in endothelial cell growth medium (#C-22010, Promocell) supplemented with dialyzed FBS (10%) (#SZ0115, Biochrom) using gelatin-coated 75 cm^2 cell culture flasks. Sub-cultivation of HUVEC was performed with the Detach Kit ([…], Promocell) and cells were seeded at a cell density of 4.0-7.5×10^5 cells per 75 cm^2 cell culture flask.
Isolation of human PBMC from blood was performed by modified density gradient centrifugation as described elsewhere. Briefly, 15-20 ml of freshly drawn heparinized blood was transferred in Biocoll (#L6115, Biochrom)-containing Leukosep tubes (#227290, Greiner bio-one) and centrifuged in a Hettich Rotanta 460 RS Type 5606 (Hettich Laborapparate) at 1066 g for 15 min. After removal of the plasma fraction the PBMC containing phase was transferred in a new tube and washed twice with FACS-buffer (D-PBS #L1820, 5% FBS #SO115, Biochrom). Erythrocyte lysis was performed with lysis buffer (8.29 g/l NH4Cl, 1.00 g/l KHCO3, 0.037 g/l EDTA) for 5 min at room temperature. For subsequent purification of untouched T cells the human Pan T cell-isolation Kit II (#130-091-156, Miltenyi Biotec) was used according to the manufacturer's instructions.
The ibidi Pump System (#10902, ibidi) was used for cultivation of endothelial cells under flow conditions as well as for performing adhesion and rolling assays of human T cells on endothelial cells. The system consists of the ibidi Pump (#10905, ibidi) and the ibidi Fluidic Unit (#10903, ibidi) which work together to generate a unidirectional flow of medium in an attached slide with a defined channel height. The system is controlled by the ibidi Pump Control software (#10908, notebook+software, ibidi). For cultivation of HBMEC or HUVEC under flow conditions, HBMEC or HUVEC were seeded at a cell density of 2.5×10^6 cells/ml into μ-slide I^0.4 Luer Collagen IV (#80172, ibidi) or μ-slide I^0.4 Luer ibiTreat (#80176, ibidi), respectively according to the manufacturer's instructions and cultivated with a perfusion set “yellow/green” (#10964, ibidi) for 48 h under wall shear stress of 5 or 10 dyn/cm^2, respectively. […]

patients = conditions: cited from earlier work

Blinatumomab: recombinant CD19×CD3 bispecific scFv antibody consisting of four immunoglobulin variable domains assembled into a single polypeptide chain
mean rolling velocity±SD (HUVEC; T cells pre-incubated with 10 ng/ml Blinatumomab for 45 min, short-term (45 sec), 1 dyn/cm^2, control −AMG 103 283±82): 237±45 μm/sec | increase of number of T cells firmly adhering to HUVEC (HUVEC; pre-incubation with 10 ng/ml Blinatumomab, short-term conditions, vs −AMG 103): 2.6 fold | T cell-rolling velocity immediately after addition (HBMEC; 10 ng/ml Blinatumomab, 0 min, long-term): no decrease of T cell-rolling velocity was detectable | mean T cell-rolling velocity±SD (HBMEC; 10 ng/ml Blinatumomab, 45 min after addition, long-term, control −AMG 103 323±78): 209±40 μm/sec | mean T cell-rolling velocity±SD (HBMEC; histamine-stimulated HBMEC, +AMG 103 10 ng/ml, 45 min, control −AMG 103 430±92): 281±96 μm/sec | mean T cell-rolling velocity±SD (HBMEC; non-stimulated HBMEC (PPS experiment), +AMG 103 10 ng/ml, 40 min, control −AMG 103 399±153): 263±66 μm/sec | mean T cell-rolling velocity±SD (HBMEC; non-stimulated HBMEC (anti-CD11a experiment), +AMG 103 10 ng/ml, 10 min, control −AMG 103 304±40): 214 μm/sec | mean T cell-rolling velocity±SD (HBMEC; non-stimulated HBMEC (anti-CD162 experiment), +AMG 103 10 ng/ml, 45 min, control −AMG 103 539±149): 428±89 μm/sec | mean T cell-rolling velocity±SD (HBMEC; non-stimulated HBMEC (anti-ICAM-1 experiment), +AMG 103 10 ng/ml, 30 min, control −AMG 103 407±90): 335 μm/sec | mean T cell-rolling velocity±SD (HBMEC; non-stimulated HBMEC (anti-P-selectin experiment), +AMG 103 10 ng/ml, 40 min, control −AMG 103 449±90): 370±55 μm/sec | mean T cell-rolling velocity±SD (HBMEC; non-stimulated HBMEC (natalizumab experiment), +AMG 103 10 ng/ml, 40 min, control −AMG 103 482±149): 359±102 μm/sec | mean T cell-rolling velocity±SD (HBMEC; non-stimulated HBMEC (recombinant P-selectin experiment), +AMG 103 10 ng/ml, 45 min, control −AMG 103 386±77): 340±68 μm/sec | effect on malignant B cells in bone marrow and liver (patients; B-NHL): clearance of malignant B cells from bone marrow and liver | clinical response (patients; B-NHL, dose level of 0.015 mg/m^2/day): Partial and complete responses were first observed | effect on B lymphoma cells in peripheral blood (patients; B-NHL, doses as low as 0.005 mg/m^2/day civ infusion over four weeks): complete and sustained elimination of B lymphoma cells in peripheral blood | clinical response (patients; B-precursor ALL, minimal residual disease and relapsed or refractory, four-week civ infusions, 0.015 mg/m^2/day): hematological complete response | clinical response (patients; majority of B-NHL patients, dose level of 0.06 mg/m^2/day): substantial tumor regression
